For orientation: IC50 means the concentration that gives 50% inhibition.

11 compounds from US9474759B2 (priority 2011, dated 2016) can be followed below.

SMILES strings stand for the structures. Like-named read-outs stand apart in the source and are kept apart here. A value given as a limit tells only on which side of the number the result lay.

The test system of data set [1] is FIPV-1146. Briefly: FIPV-1146 replication in CRFK cells, TCID50 method. To be noted: MOI 0.05, mean ± SEM. The class given is cell-based, feline coronavirus. How it is done:
(§1) Crandell Rees feline kidney (CRFK) cells were maintained in minimal essential medium containing 2-5% fetal bovine serum and antibiotics (chlortetracycline [25 μg/ml], penicillin [250 U/ml], and streptomycin [250 μg/ml]). FIPV WSU 79-1146 and FECV WSU 79-1683 strains are the prototypes of serotype II FIPV or FECV, respectively, and were purchased from ATCC (Manassas, Va.).
(§2) The cells were further incubated in the presence of each compound for 1 hr at 37° C. Then […] or FECV-1683 was inoculated to the cells at a multiplicity of infection (MOI) of 0.05 or 5.
(§3) b. TCID50 Method. A standard TCID50 method with the 10-fold dilution of each sample was used for virus titration.

For a further data set, the system named is FECV-1683. The data set is described as follows: FECV-1683 replication in CRFK cells, TCID50 method. The class given is cell-based, feline coronavirus. Conditions: MOI 0.05, mean ± SEM. How it is done:
as §1, §2, §3

Data set [2] relates to FIPV-1146. The data set is described as follows: Combination treatment of CA074-Me and GC373 on FIPV-1146 replication, MacSynergy II. In kind it is cell-based, feline coronavirus. To be noted: CA074-Me alone at 1, FIPV-infected CRFK cells. How it is done: The CRFK cells were incubated with GC373 (0.02˜0.2 μM), CA074-Me (0.5˜5 μM), or the combinations of GC373 (0.02˜0.2 μM) and CA074-Me (0.5˜5 μM) for 1 hr at 37° C. prior to inoculation of FIPV-1146 at an MOI of 0.05. After 24 hrs of incubation, virus replication was assessed with virus titration using the TCID50 method. Drug-drug interactions were analyzed by the three-dimensional model of Prichard and Shipman, using the MacSynergy II software at 95% confidence limits. Theoretical additive interactions were calculated from the dose-response curve for each compound individually, and the calculated additive surface was subtracted from the experimentally determined dose-response surface to give regions of synergistic or antagonistic interactions. The resulting surface appears as horizontal plane at 0% of synergy if the interactions of two compounds are additive. Any peak above or below this plane indicates synergy or antagonism, respectively.

Data set [3] relates to norovirus (cell-based replicon system). Briefly: Cell-based replicon system of norovirus (Example 4). For orientation: In antiviral work, replicon cells carry a viral genome segment that copies itself.
The target of data set [4] is Norwalk virus 3CL protease (NV3CL protease), recombinant (Norovirus, UniProt Q83883). Briefly: Recombinant NV protease FRET inhibition assay (Edans-[…]-Dabcyl substrate), FIG. 4. In kind it is biochemical. Conditions: 2.5 μM enzyme, 300 nM Edans-EPDFHLQGPEDLAK-Dabcyl, 30 min incubation, 30° C., pH 8.0. How it is done:
(§4) After a 30 minute incubation period, 5 μL of 12 μM Edans-[…]-Dabcyl (SEQ ID NO:1) substrate in DMSO was then added and the increase in fluorescence was monitored for 30 minutes at an excitation and emission wavelength of 360 and 460 nm, respectively. Using a HORIBA FluoroMax 4 spectrofluorometer. Hydrolysis curves were linear. The final enzyme and substrate concentrations were 2.5 μM and 300 nM, respectively. […] Furthermore, the nature of the cap was also important (compare, for example, inhibitors A and D).

In data set [5] the test system is norovirus (NV replicon-harboring HG23 cells). Briefly: NV replicon-harboring cells (HG23), NV genome levels by qRT-PCR (Example 1). The class given is cell-based, Norwalk virus. To be noted: read-out: ED50, effective dose that inhibits 50% of norovirus replication, NV genome levels at 24 hrs post-treatment.
The target of data set [6] is Norwalk virus 3CL protease (Norovirus, UniProt Q83883). The data set is described as follows: Recombinant NV protease fluorogenic substrate inhibition assay (Example 1). In kind it is biochemical. Conditions: 30 min pre-incubation, 30° C., pH 8.0. How it is done: as §4
Norwalk virus 3CL protease, sequence (Q83883 1101-1281): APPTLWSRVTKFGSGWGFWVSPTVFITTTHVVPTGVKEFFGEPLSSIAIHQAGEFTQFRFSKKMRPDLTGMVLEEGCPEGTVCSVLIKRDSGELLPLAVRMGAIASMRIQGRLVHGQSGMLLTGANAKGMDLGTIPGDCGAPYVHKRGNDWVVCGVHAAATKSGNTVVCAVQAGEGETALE
Data set [7] concerns murine norovirus-1 (MNV-1). Briefly: MNV-1 replication in RAW267.4 cells, TCID50 (Example 1). In kind it is cell-based. To be noted: Norwalk virus, MOI 2, TCID50 assay, read-out: ED50, replication of murine norovirus (MNV).
A further data set deals with HG23 cells. Conditions: human.
Another data set has as its system MHV. Briefly: Cell culture system, MHV replication in CCL-9.1 cells (Example 3). In kind it is cell-based, mouse hepatitis virus. To be noted: at concentrations up to 50 μM or 100 μM.
Data set [8] deals with cells used for virus replication. Briefly: Non-specific cytotoxicity in the cells used for virus replication (Example 3). The class given is cell-based. How it is done:
Confluent cells grown in 96-well plates were treated with various concentrations (1 to 500 μM) of each compound for 72 h. Cell cytotoxicity was measured by a CytoTox 96® nonradioactive cytotoxicity assay kit (Promega, Madison, Wis.) and crystal violet staining. The In vitro therapeutic index was calculated by dividing the TD50 by the IC50.

The test system of data set [9] is coronavirus proteases (TGEV and SARS-CoV). In kind it is biochemical. Conditions: optimized FRET assay.
A further data set deals with FCV. Briefly: Cell culture system, FCV replication in CRFK cells (Example 3). The class given is cell-based, feline calicivirus. To be noted: at concentrations up to 50 μM or 100 μM.
For a further data set, the system named is MNV-1. Briefly: Cell culture system, MNV-1 replication in RAW267.4 cells (Example 3). The class given is cell-based, murine norovirus. Conditions: at concentrations up to 50 μM or 100 μM.
[10] abbreviates: 24 hr post infection, read-out: Inhibition [ED50 (μM)] against FIPV-1146, 24 hrs.
The mark [11] stands for this setting: 48 hr post infection, read-out: Inhibition [ED50 (μM)] against FIPV-1146, 48 hrs.
The mark [12] stands for this setting: 24 hr post infection, read-out: Inhibition [ED50 (μM)] against FECV-1683, 24 hrs.
The mark [13] stands for this setting: 48 hr post infection, read-out: Inhibition [ED50 (μM)] against FECV-1683, 48 hrs.

Norwalk virus 3CL protease (NV3CL protease), recombinant, sequence (Q83883 1101-1281): as above

For `CCCNC(=O)[C@H]1O[C@@H]1C(=O)N[C@H](C(=O)N1CCC[C@H]1C(=O)OC)[C@@H](C)CC` (relative stereo) [CA074-Me, L-3-trans-((propylcarbamyl)oxirane-2-Carbonyl)-L-isoleucyl-L-proline methyl ester, reference compound], the EC50 in the data set with FIPV-1146 [1] (setting [10]) is 2.5 ± 1.4 µM; in the data set with FIPV-1146 [1] (setting [11]), more than 10 µM; in the data set with FECV-1683 (setting [12]), 4 ± 0.71 µM; in the data set with FECV-1683 (setting [13]), more than 10 µM. Besides, the “reduction of virus titers” value with FIPV-1146 [2] was 0.5 log10.
For `CCOC(=O)[C@H]1O[C@@H]1C(=O)N[C@@H](CC(C)C)C(=O)NCCC(C)C` (relative stereo) [Inhibitor E64d, (2S,3S)-trans-epoxysuccinyl-L-leucylamido-3-methylbutane ethyl ester, reference compound], the EC50 in the data set on FIPV-1146 [1] (setting [10]) was 1.45 ± 0.49 µM; in the data set on FIPV-1146 [1] (setting [11]) it was more than 10 µM; in the data set on FECV-1683 (setting [12]), 2.3 ± 0.28 µM; in the data set with FECV-1683 (setting [13]) it was more than 10 µM.
With `CC(C)C[C@H](NC(=O)OCc1ccccc1)C(=O)N[C@@H](CC1CCNC1=O)C(O)C(=O)NC(C)C` (stereo partly drawn) [Inhibitor 5a], in data set [3], the “anti-norovirus activity in the cell-based replicon system (in words)” value is given as “noteworthy activity”.
Still for that read-out and setting: the entry for `CC(C)NC(=O)C(O)[C@H](CC1CCNC1=O)NC(=O)[C@H](Cc1ccccc1)NC(=O)OCc1ccccc1` (stereo partly drawn) [Inhibitor 5h] is “noteworthy activity”.
In the case of `CC(C)C[C@H](NC(=O)OCc1ccccc1)C(=O)N[C@@H](CC1CCNC1=O)C(O)c1nccs1` (stereo partly drawn) [Inhibitor 7b], the “anti-norovirus activity in the cell-based replicon system (in words)” value in data set [3] is “noteworthy activity”.
In the case of `CC(C)C[C@H](NC(=O)OCc1ccccc1)C(=O)N[C@@H](CC1CCNC1=O)C(=O)c1ncco1` (stereo partly drawn) [Inhibitor 8a], the EC50 in [3] (read-out: ED50 in the cell-based replicon system) was determined as 0.9 µM.
Consider `CC(C)C[C@H](NC(=O)N1CCOCC1)C(=O)N[C@H](C=O)CC1CCNC1=O` (stereo partly drawn) [Inhibitor A], for which the concentration for half-maximal inhibition (IC50) in [4] is 7.2 µM.
As to `CC(C)C[C@H](NC(=O)CNC(=O)OCc1ccccc1)C(=O)N[C@H](C=O)CC1CCNC1=O` (stereo partly drawn) [Inhibitor E], the IC50 in data set [4] is 1.45 µM. Further, the EC50 turned out to be 7.8 µM in [5] and 20.3 µM in [7]. Moreover, the “inhibitory activity against Norwalk virus 3CL protease (in words)” value (“inhibitory activity” below) in [6] is reported as “improved potency, albeit not dramatically”. Moreover, in the data set with HG23 cells, the “TD50, median toxic dose” value was more than 320 µM.
For the compound `CCCC[C@H](NC(=O)CNC(=O)OCc1ccccc1)C(=O)N[C@H](C=O)CC1CCNC1=O` (stereo partly drawn) [Inhibitor G], the IC50 in [4] was found to be 0.87 µM. The “inhibitory activity” value in data set [6] is recorded as “sub-micromolar inhibitor”.
With `CCC(C)[C@H](NC(=O)CNC(=O)OCc1ccccc1)C(=O)N[C@H](C=O)CC1CCNC1=O` (stereo partly drawn) [Inhibitor I], the “inhibitory activity” value in data set [6] is “detrimental to inhibitory activity”.
Regarding `CCOC(=O)/C=C/[C@H](C[C@@H]1CCNC1=O)NC(=O)[C@@H](CC(=O)[C@@H](NC(=O)c1cc(C)on1)C(C)C)Cc1ccc(F)cc1` [Rupintrivir], the “inhibition of replication of MHV (in words)” value in the data set on MHV is recorded as “did not inhibit the replication”. For the same compound, the “non-specific cytotoxicity: none shown up to this concentration” value in [8] is more than 500 µM. Also, the “activity against the coronavirus proteases compared to GC373 and GC376 (in words)” value in data set [9] was “substantially less effective”. For the same compound, the “inhibition of replication of FCV (in words)” value with FCV was “did not inhibit the replication”. Also, the “inhibition of replication of MNV-1 (in words)” value in the data set on MNV-1 is reported as “did not inhibit the replication”.
